Assay results as given in patent publication US7534421B2, “s-Triazine compounds bearing at least one para-aminobenzalmalonic salt substituent and photoprotective cosmetic compositions comprised thereof” (L'Oreal, priority 2003, dated 2009).
Structures can show the parent of a compound that is named as a salt.

Test: UV absorption spectrum (λmax, εmax, E1%) of the s-triazine UV screens in solution
Assay type: physicochemical
Conditions: UV (DMSO/ethanol)

Row | Compound | E1% | εmax | λmax
1 | O=C(O)C(=Cc1ccc(Nc2nc(O)nc(Nc3ccc(C=C(C(=O)O)C(=O)O)cc3)n2)cc1)C(=O)O [2-(4-{4-[4-(2,2-dicarboxyvinyl)phenylamino]-6-hydroxy[1,3,5]triazin-2-ylamino}benzylidene)malonic acid] | E1% = 691 | εmax = 35 070 | λmax = 336 nm

Same assay, conditions: UV (NaOH 0.1 N)

Row | Compound | E1% | εmax | λmax
2 | O=C(O)C(=Cc1ccc(Nc2nc(Cl)nc(Nc3ccc(C=C(C(=O)O)C(=O)O)cc3)n2)cc1)C(=O)O [2-(4-{4-chloro-6-[4-(2,2-dicarboxy-vinyl)phenylamino][1,3,5]triazin-2-ylamino}benzylidene)malonic acid] | E1% = 932 | εmax = 64 960 | λmax = 320 nm
3 | O=C(O)C(=Cc1ccc(Nc2nc(O)nc(Nc3ccc(C=C(C(=O)O)C(=O)O)cc3)n2)cc1)C(=O)O [Example 5, tetrasodium salt of 2-(4-{4-[4-(2,2-dicarboxyvinyl)phenylamino]-6-hydroxy[1,3,5]triazin-2-ylamino}benzylidene)malonic acid] | E1% = 852 | εmax = 50 700 | λmax = 322 nm

Same assay, conditions: UV (ethanol)

Row | Compound | E1% | εmax | λmax
4 | O=C(O)C(=Cc1ccc(Nc2nc(Nc3ccc(C=C(C(=O)O)C(=O)O)cc3)nc(Nc3ccc(C=C(C(=O)O)C(=O)O)cc3)n2)cc1)C(=O)O [acid derivative of Example 1, 2-(4-[4,6-bis[4-(2,2-dicarboxyvinyl)phenylamino][1,3,5]triazin-2-ylamino}benzylidene)malonic acid] | E1% = 930 | εmax = 64 820 | λmax = 348 nm

Same assay, conditions: UV (water)

Row | Compound | E1% | εmax | λmax
5 | O=C(O)C(=Cc1ccc(Nc2nc(Nc3ccc(C=C(C(=O)O)C(=O)O)cc3)nc(Nc3ccc(C=C(C(=O)O)C(=O)O)cc3)n2)cc1)C(=O)O [Example 1, hexasodium salt of 2-(4-{4,6-bis[4-(2,2-dicarboxyvinyl)phenylamino][1,3,5]triazin-2-ylamino}benzylidene)malonic acid] | E1% = 1 043 | εmax = 86 428 | λmax = 323 nm
6 | O=C(O)C(=Cc1ccc(Nc2nc(Nc3ccc(C=C(C(=O)O)C(=O)O)cc3)nc(Nc3ccc(C=C(C(=O)O)C(=O)O)cc3)n2)cc1)C(=O)O [Example 2, hexasodium salt of 2-(4-{4,6-bis[4-(2,2-dicarboxyvinyl)phenylamino][1,3,5]triazin-2-ylamino}benzylidene)malonic acid] | E1% = 1 060 | εmax = 87 820 | λmax = 323 nm
7 | O=C(O)C(=Cc1ccc(Nc2nc(Nc3ccc(C=C(C(=O)O)C(=O)O)cc3)nc(Nc3ccc(C=C(C(=O)O)C(=O)O)cc3)n2)cc1)C(=O)O [Example 3, hexapotassium salt of 2-(4-{4,6-bis[4-(2,2-dicarboxyvinyl)phenylamino][1,3,5]triazin-2-ylamino}benzylidene)malonic acid] | E1% = 720 | εmax = 66 600 | λmax = 324 nm
8 | O=C(O)C(=Cc1ccc(Nc2nc(Nc3ccc(C=C(C(=O)O)C(=O)O)cc3)nc(Nc3ccc(C=C(C(=O)O)C(=O)O)cc3)n2)cc1)C(=O)O [Example 4, hexatriethanolamine salt of 2-(4-{4,6-bis[4-(2,2-dicarboxyvinyl)phenylamino][1,3,5]triazin-2-ylamino}benzylidene)malonic acid] | E1% = 523 | εmax = 83 250 | λmax = 322 nm
9 | COc1ccc(-c2nc(Nc3ccc(C=C(C(=O)O)C(=O)O)cc3)nc(Nc3ccc(C=C(C(=O)O)C(=O)O)cc3)n2)cc1 [Example 6, tetrasodium salt of 2-{4-[4-[4-(2,2-dicarboxyvinyl)phenylamino]-6-(4-methoxyphenyl)[1,3,5]triazin-2-ylamino]benzylidene}malonic acid] | E1% = 768 | εmax = 45 900 | λmax = 318 nm
10 | CCCCOc1nc(Nc2ccc(C=C(C(=O)O)C(=O)O)cc2)nc(Nc2ccc(C=C(C(=O)O)C(=O)O)cc2)n1 [Example 7, tetrasodium salt of 2-(4-{4-butoxy-6-[4-(2,2-dicarboxyvinyl)phenylamino][1,3,5]triazin-2-ylamino}benzylidene)malonic acid] | E1% = 922 | εmax = 51 960 | λmax = 317 nm
11 | O=C(O)/C=C/c1ccc(Nc2nc(Nc3ccc(C=C(C(=O)O)C(=O)O)cc3)nc(Nc3ccc(C=C(C(=O)O)C(=O)O)cc3)n2)cc1 [Example 9, pentasodium salt of 2-(4-{4-[4-(2-carboxyvinyl)phenylamino]-6-[4-(2,2-dicarboxy-vinyl)phenylamino][1,3,5]triazin-2-ylamino}benzylidene)malonic acid] | E1% = 1 274 | εmax = 83 070 | λmax = 327 nm
12 | CC12CCC(/C(=C\c3ccc(Nc4nc(Nc5ccc(C=C(C(=O)O)C(=O)O)cc5)nc(Nc5ccc(C=C(C(=O)O)C(=O)O)cc5)n4)cc3)C1=O)C2(C)C (stereo not drawn) [Example 10, tetrasodium salt of 2-(4-{4-[4-(2-dicarboxyvinyl)phenylamino]-6-[4-(4,7,7-trimethyl-3-oxobicyclo[2.2.1]hept-2-ylidenemethyl)phenylamino][1,3,5]triazin-2-ylamino}benzylidene)malonic acid] | E1% = 963 | εmax = 69 210 | λmax = 329 nm
13 | CC12CCC(/C(=C\c3ccc(Nc4nc(Nc5ccc(C=C(C(=O)O)C(=O)O)cc5)nc(Nc5ccc(/C=C6/C(=O)C7(C)CCC6C7(C)C)cc5)n4)cc3)C1=O)C2(C)C [Example 11, disodium salt of 2-(4-{[4,6-bis({4-(4,7,7-trimethyl-3-oxobicyclo[2.2.1]hept-2-ylidene)methyl]phenyl}amino)[1,3,5]triazin-2-ylamino}benzylidene)malonic acid] | E1% = 1 238 | εmax = 98 170 | λmax = 353 nm
